The values below come from BindingDB's records for patent US11433071 (Incyte Corporation; Incyte Holdings Corporation, 2022).

Test [1] concerns the target T1, Phosphatidylinositol 4,5-bisphosphate 3-kinase catalytic subunit delta isoform (Homo sapiens, UniProt O00329).
T1 sequence (O00329 whole entry): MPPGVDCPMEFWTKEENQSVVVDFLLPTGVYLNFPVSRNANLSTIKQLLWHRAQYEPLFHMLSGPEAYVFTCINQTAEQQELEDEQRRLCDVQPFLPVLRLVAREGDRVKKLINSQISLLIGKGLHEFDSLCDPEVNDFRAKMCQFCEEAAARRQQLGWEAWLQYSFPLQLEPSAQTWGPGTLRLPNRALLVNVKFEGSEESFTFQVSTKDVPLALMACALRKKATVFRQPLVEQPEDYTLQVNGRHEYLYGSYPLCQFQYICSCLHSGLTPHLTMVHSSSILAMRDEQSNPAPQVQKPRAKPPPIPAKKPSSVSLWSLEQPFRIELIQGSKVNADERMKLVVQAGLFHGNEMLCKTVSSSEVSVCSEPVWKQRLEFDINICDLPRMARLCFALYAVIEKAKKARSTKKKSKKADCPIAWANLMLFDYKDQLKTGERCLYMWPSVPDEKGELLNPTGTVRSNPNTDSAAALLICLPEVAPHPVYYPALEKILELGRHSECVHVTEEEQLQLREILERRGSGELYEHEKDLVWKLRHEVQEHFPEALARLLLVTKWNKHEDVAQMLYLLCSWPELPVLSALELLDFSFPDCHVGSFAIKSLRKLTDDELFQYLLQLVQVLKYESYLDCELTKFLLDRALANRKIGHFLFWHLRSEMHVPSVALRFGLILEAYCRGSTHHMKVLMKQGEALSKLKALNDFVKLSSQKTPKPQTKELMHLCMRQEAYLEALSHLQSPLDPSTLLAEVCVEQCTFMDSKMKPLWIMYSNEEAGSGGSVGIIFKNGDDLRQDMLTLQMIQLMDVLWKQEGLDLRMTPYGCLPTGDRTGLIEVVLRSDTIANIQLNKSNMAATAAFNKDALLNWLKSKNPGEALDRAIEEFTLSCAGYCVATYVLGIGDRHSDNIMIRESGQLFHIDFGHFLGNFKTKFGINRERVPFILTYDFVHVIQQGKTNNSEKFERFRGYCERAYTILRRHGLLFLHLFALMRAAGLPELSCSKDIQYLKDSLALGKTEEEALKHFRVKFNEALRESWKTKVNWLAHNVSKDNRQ
Briefly: PI3Kδ Scintillation Proximity Assay. Here is the method: The kinase reaction was conducted in polystyrene 384-well matrix white plate from Thermo Fisher Scientific in a final volume of 25 μL. Inhibitors were first diluted serially in DMSO and added to the plate wells before the addition of other reaction components. The final concentration of DMSO in the assay was 0.5%. The PI3K assays were carried out at room temperature in 20 mM MOPS, pH 6.7, 10 mM MgCl2, 5 mM DTT and CHAPS 0.03%. Reactions were initiated by the addition of ATP, the final reaction mixture consisted of 20 μM PIP2, 20 μM ATP, 0.2 μCi [γ-33P] ATP, 4 nM PI3Kδ. […] 25 mM EDTA, 400 µM ATP. The final concentration of SPA beads was 1.0 mg/mL. After the plate sealing, plates were shaken overnight at room temperature and centrifuged at 1800 rpm for 10 minutes, the radioactivity of the product was determined by scintillation counting on Topcount (Perkin-Elmer).
For orientation: Scintillation proximity formats need no separation of bound from free tracer.

In test [2] the target is T1, Phosphatidylinositol 4,5-bisphosphate 3-kinase catalytic subunit delta isoform. In words: PI3K Enzyme Assay. Here is the method: Materials: Lipid kinase substrate, phosphoinositol-4,5-bisphosphate (PIP2), are purchased from Echelon Biosciences (Salt Lake City, Utah). PI3K isoforms α, β, δ and γ are purchased from Millipore (Bedford, Mass.). ATP, MgCl2, DTT, EDTA, MOPS and CHAPS are purchased from Sigma-Aldrich (St. Louis, Mo.).The kinase reaction are conducted in clear-bottom 96-well plate from Thermo Fisher Scientific in a final volume of 24 μL. Inhibitors are first diluted serially in DMSO and added to the plate wells before the addition of other reaction components. The final concentration of DMSO in the assay is 0.5%. The PI3K assays are carried out at room temperature in 20 mM MOPS, pH 6.7, 10 mM MgCl2, 5 mM DTT and CHAPS 0.03%. The reaction mixture is prepared containing 50 μM PIP2, kinase and varying concentration of inhibitors. Reactions are initiated by the addition of ATP containing 2.2 μCi [γ-33P]ATP to a final concentration of 1000 μM. The final concentration of PI3K isoforms α, β, δ and γ in the assay were 1.3, 9.4, 2.9 and 10.8 nM, respectively. Reactions are incubated for 180 minutes and terminated by the addition of 100 μL of 1 M potassium phosphate pH 8.0, 30 mM EDTA quench buffer. […] After the plate sealing, the radioactivity of the product is determined by scintillation counting on Topcount (Perkin-Elmer). […]

The IC50 is the concentration that gives 50% inhibition. On to `CCOc1c(C(C)n2nc(C)c3c(N)ncnc32)cc(Cl)c(C#N)c1C1CN(c2cncc(C#N)c2)C1` (stereo unspecified) [US11433071, Example 330], for which, in test [1], the IC50 is less than 10 nM.

On to `CCOc1c(C(C)n2nc(C)c3c(N)ncnc32)cc(Cl)c(C#N)c1C1CN(c2cncc(C(=O)N(C)C)c2)C1` (stereo unspecified) [US11433071, Example 331], for which, in test [1], the IC50 is less than 10 nM.

For the molecule `CCOc1c(C(C)n2nc(C)c3c(N)ncnc32)cc(Cl)c(C#N)c1C1CN(c2ccnc(C(=O)N(C)C)c2)C1` (stereo unspecified) [US11433071, Example 334], the IC50 in test [1] was less than 10 nM.

Regarding `CCOc1c(C(C)n2nc(C)c3c(N)ncnc32)cc(C)c(C#N)c1C1CN(c2cncc(S(C)(=O)=O)c2)C1` (stereo unspecified) [US11433071, Example 335], the IC50 in test [1] was less than 10 nM.

`CCOc1c(C(C)n2nc(C)c3c(N)ncnc32)cc(Cl)c(C#N)c1C1CN(c2ccc(-c3nnn(C)n3)nc2)C1` (stereo unspecified) [US11433071, Example 336] came in with an IC50 in test [1] of less than 10 nM.

The molecule `CCOc1c(C(C)n2nc(C)c3c(N)ncnc32)cc(Cl)c(C#N)c1C1CN(c2ccc(-c3cnn(C)n3)nc2)C1` (stereo unspecified) [US11433071, Example 337] came in with an IC50 in test [1] of less than 10 nM.

As to `CCOc1c(C(C)n2nc(C)c3c(N)ncnc32)cc(Cl)c(C#N)c1C1CN(N2CC(COC)C2)C1` (stereo unspecified) [US11433071, Example 341], in test [1], the IC50 was less than 10 nM.

Turning to `CCOc1c(C(C)n2nc(C)c3c(N)ncnc32)cc(Cl)c(C#N)c1C1CN(N2CC(C#N)C2)C1` (stereo unspecified) [US11433071, Example 342], the IC50 in test [1] was less than 10 nM.

Molecule `CCOc1c(C(C)n2nc(C)c3c(N)ncnc32)cc(C)c(C#N)c1C1CN(c2cnn(C)c2)C1` (stereo unspecified) [US11433071, Example 343] showed an IC50 in test [1] of less than 10 nM.

In test [2], `COc1c([C@@H](C)n2cc(C)c(=O)c3c(N)ncnc32)cc(Cl)c(C)c1-c1ccc(C[C@H](C)O)nc1` [US11433071, Example 361] displayed an IC50 of more than 500 nM.

In test [1], `COc1c([C@H](C)n2cc(C)c(=O)c3c(N)ncnc32)cc(Cl)c(C)c1-c1ccc(C[C@@H](C)O)nc1` [US11433071, Example 362] came in with an IC50 of less than 10 nM.
